Columns and labels:
Assay type in all cases: functional, cell-based
A 172 = test: In vitro cytotoxicity against A172 human tumor cell lines.
DLD-1 = test: In vitro cytotoxicity against DLD-1 human tumor cell lines.
[1] = system: KATO III stomach cancer cell line; test: In vitro cytotoxicity against KATO-III human tumor cell line.
Caov-3 cell line = test: In vitro cytotoxicity against CAOV-3 human tumor cell line.
L1210 = test: In vitro cytotoxicity against L1210 mouse leukemia tumor cell line.

| Structure (SMILES) | IC50 (A 172) [µM] | IC50 (DLD-1) [µM] | IC50 [1] [µM] | IC50 (Caov-3 cell line) [µM] | IC50 (L1210) [µM] |
| --- | --- | --- | --- | --- | --- |
| O=C(Nc1ccccc1)OCCC1(O)C(=O)OCc2c1cc1n(c2=O)Cc2cc3ccccc3nc2-1 (stereo not given) | 0.06 | 1.2 | 5.38 | 3.72 | 6.87 |
| COCCOCOCCC1(O)C(=O)OCc2c1cc1n(c2=O)Cc2cc3ccccc3nc2-1 (stereo not given) | 4.04 | 15.1 | 53 | 1.92 | 4.97 |
| O=C(Nc1ccccc1)OCC1(O)C(=O)OCc2c1cc1n(c2=O)Cc2cc3ccccc3nc2-1 (stereo not given) | 2.77 | 4.24 | 13.1 | 1.58 | 2.77 |
| CC(C)NC(=O)OCC1(O)C(=O)OCc2c1cc1n(c2=O)Cc2cc3ccccc3nc2-1 (stereo not given) | 11.2 | 23.4 | 72.3 | 22.5 | 5.97 |
| CC(C)NC(=O)OCCC1(O)C(=O)OCc2c1cc1n(c2=O)Cc2cc3ccccc3nc2-1 (stereo not given) | 5.25 | 11 | 46.5 | 1.42 | 9.41 |
| CCOCOCCC1(O)C(=O)OCc2c1cc1n(c2=O)Cc2cc3ccccc3nc2-1 (stereo not given) | 1.37 | 1.07 | 19.3 | 1.85 | 1.42 |
| COCC(=O)OCC1(O)C(=O)OCc2c1cc1n(c2=O)Cc2cc3ccccc3nc2-1 (stereo not given) | 17.6 | 47.1 | > 100 | 12.9 | 13.6 |
| COCC(=O)OCCC1(O)C(=O)OCc2c1cc1n(c2=O)Cc2cc3ccccc3nc2-1 (stereo not given) | 6.99 | 31.8 | 3.05 | 6.39 | 24.5 |
| COCCOCOCC1(O)C(=O)OCc2c1cc1n(c2=O)Cc2cc3ccccc3nc2-1 (stereo not given) | 4.38 | 25.8 | 83.5 | 6 | 22.2 |
| CC(=O)OCC1(O)C(=O)OCc2c1cc1n(c2=O)Cc2cc3ccccc3nc2-1 (stereo not given) | 1.53 | 1.22 | 9.43 | 0.82 | 1.71 |
| CC(=O)OCCC1(O)C(=O)OCc2c1cc1n(c2=O)Cc2cc3ccccc3nc2-1 (stereo not given) | 3.99 | 7.04 | 0.98 | 4.23 | 5.09 |
| CCOCOCC1(O)C(=O)OCc2c1cc1n(c2=O)Cc2cc3ccccc3nc2-1 (stereo not given) | 11.1 | 17.1 | 40.7 | 17.6 | 3.4 |
| COCOCC1(O)C(=O)OCc2c1cc1n(c2=O)Cc2cc3ccccc3nc2-1 (stereo not given) | 8.39 | 2.41 | 23.2 | 4 | 1.65 |
| O=C1OCc2c(cc3n(c2=O)Cc2cc4ccccc4nc2-3)C1(O)CO (stereo not given) | 7.19 | 17.8 | 11.5 | 2.17 | 3.97 |
| O=C1OCc2c(cc3n(c2=O)Cc2cc4ccccc4nc2-3)C1(O)CCO (stereo not given) | 4.47 | 2.5 | 9.72 | 6.31 | 6.31 |

— ChEMBL document CHEMBL1151007, “Synthesis and in vitro cytotoxicity of (RS)-20-desethyl-20-substituted camptothecin analogues” (Bioorg Med Chem Lett, 1996)
